Data: patent US9629823B2, “Composition for promoting collagen production, for promoting elastin production and/or for promoting keratinocyte migration and usage therefor” (PUBLIC UNIVERSITY CORPORATION OSAKA CITY UNIVERSITY, priority 2013, dated 2017)

Columns and labels:
[1] = tested on: human normal skin-derived keratinocyte HaCaT cells; experiment: Scratch (wound healing) assay of keratinocyte migration; format: cell-based; conditions: 24 hours, control = 100
Experimental: Cells of human normal skin-derived keratinocyte HaCaT cells were inoculated at a density of 5.0×10^5 cells/dish in a plastic dish having a diameter of 35 mm with a mark on the bottom and cultured until they reached confluence in a 5% CO2 incubator at 37° C. The culture medium used was Dulbecco's modified Eagle's medium (DMEM: Nissui Pharmaceutical Co., Ltd.) containing 10% fetal bovine serum (FBS: Nichirei Biosciences, Inc.), penicillin (50 units/ml, Meiji Co., Ltd.) and streptomycin ([…], Meiji Co., Ltd.). The medium was replaced every two days.
After culturing the cells until they reached confluence, cells in the dish were scraped with a chip and a linear wound pattern was formed therewith. Immediately thereafter, the wound pattern was analysed under an inverted microscope (OLYMPUS IX-70: Olympus Corporation) and photographed. […] The wound pattern was then analysed with OLYMPUS IX-70 and photographed. […]
Based on the obtained photographic images, the width of wound patterns in the samples was measured. […] Based on the measurement results, the repair rate in the region of the wound by sesaminol was calculated. The repair rates for the samples calculated are as follows with the rate for the control being 100.

[2] = tested on: type I collagen in CCD-10595K cells; experiment: Collagen production by immunohistochemistry (anti-type I collagen) in fibroblasts; format: cell-based, human; conditions: sesaminol 15 or 30 μg/ml, 24 hours
Experimental: Cells of human normal skin-derived fibroblast CCD-10595K strain (purchased from DS Pharma Biomedical Co., Ltd.) were inoculated at a density of 3.0×10^4 cells/ml in a plastic dish having a diameter of 35 mm and cultured in a 5% CO2 incubator at 37° C. The medium used was the same medium as in Example 1. After 1 or 2 days, the medium was replaced with the medium containing the sesaminol solution so as to contain sesaminol at a final concentration of 15 or 30 μg/ml and the cells were incubated for 24 hours in a 5% CO2 incubator at 37° C. As a control, incubation was carried out using the medium without sesaminol solution.
After the incubation, cells were washed three times with PBS. Cells were then fixed in 4% paraformaldehyde and stored overnight at 4° C. The fixed cells were treated with 0.1% Triton®-X100 diluted in PBS for 5 minutes and washed with PBS for 5 minutes. The treated cells were blocked in 3% H2O2 and washed with PBS for 5 minutes. The cells were further blocked in 10% normal goat serum and washed with PBS for 5 minutes. A rabbit anti-type I collagen antibody (LSL) diluted 200-fold in PBS was added to the cells on a slide glass which were then incubated for 1 hour and washed with PBS for 5 minutes. […] The prepared slide was analysed on OLYMPUS IX-70 and images of stained cells were obtained.

[3] = tested on: type I collagen in CCD-10595K cells; experiment: Collagen production by western blot analysis in fibroblasts; format: cell-based, human; conditions: sesaminol 15 or 30 μg/ml, 24 hours
Experimental: (§1) Cells of human normal skin-derived fibroblast CCD-10595K cells (purchased from DS Pharma Biomedical Co., Ltd.) were inoculated in a plastic dish having a diameter of 35 mm and cultured until they reached confluence in a 5% CO2 incubator at 37° C. Thereafter, the medium was replaced with the medium containing the sesaminol solution so as to contain sesaminol at a final concentration of 15 or 30 μg/ml and the cells were incubated for 24 hours in a 5% CO2 incubator at 37° C. The medium used was the same medium as in Example 1. The medium was replaced every two days until the cells reached confluence. As a control, incubation was carried out using the medium without sesaminol solution.
(§2) After the incubation, cells were washed twice with PBS and collected into a 1.5-ml tube using a cell scraper. […] An aliquot of the collected supernatant was subjected to protein quantification using Serva Blue G (Serva Electrophoresis GmbH) based on the absorbance at 595 nm in order to calculate the amount of sample applied to electrophoresis.
(§3) Equal volumes of the supernatant containing cell lysate and a sample buffer were mixed and heated at 90° C. for 5 minutes to prepare a sample for electrophoresis. […] The ratio of the band intensity of type I collagen or elastin relative to the band intensity of β-actin was calculated for the samples.

[4] = tested on: elastin in CCD-10595K cells; experiment: Elastin production by western blot analysis in fibroblasts; format: cell-based, human; conditions: sesaminol 15 or 30 μg/ml, 24 hours
Experimental: as §1, §2, §3

[5] = tested on: various cell lines used in Examples; experiment: Toxicity and viability check on the cell lines used in Examples; format: cell-based; conditions: sesaminol solution (3.0 mg/ml in DMSO)
Experimental: The highly concentrated sesaminol solution was dissolved in dimethyl sulphoxide (DMSO) to prepare a sesaminol solution (3.0 mg/ml) to be used in Examples.

## Oc1cc2c(cc1C1OCC3C(c4ccc5c(c4)OCO5)OCC13)OCO2 (stereo not shown) [sesaminol]
[1]; sesaminol 15 μg/ml
  repair rate in the region of the wound (control being 100): 121.7±25.6
[1]; sesaminol 30 μg/ml
  repair rate in the region of the wound (control being 100): 139.1±20.6
[2]
  type I collagen staining intensity vs control (FIG. 2): stained more intensely than the control
[3]
  expression level of collagen (band intensity ratio to β-actin, control = 1; FIG. 3): increased
[4]
  expression level of elastin (band intensity ratio to β-actin, control = 1; FIG. 4): increased
[5]
  effect on cell viability: did not affect viability
  toxicity to cell lines: not toxic
